Source: PubChem BioAssay AID314 (DTP/NCI, 2004)
“And” between values parts separate entries of the source, which are not always exact repeats. Equal values may be shown once. Inconclusive results and toxic doses are left out. Rule for the calls: active = survival T/C of 150% or more; inactive = T/C below 125% in these data.

Test system: DBA/2 mice, P1534 leukemia ip, survival T/C
Assay: NCI In Vivo Anticancer Drug Screen. Data for tumor model P1534 Leukemia (intraperitoneal) in DBA/2 mice
Conditions: endpoint: mean survival time, higher = longer survival
Method: The antitumor activity of compounds was measured in mice bearing transplantable tumors. Survival or tumor size were measured and the results are expressed as the measurement made in the treated group (T) divided by the measurement made in the vehicle treated control group (C). The tumor model used in this assay is P1534 Leukemia (intraperitoneal) in DBA/2 mice

[1] = dose: 0.25 mg/kg/injection, schedule: Q01DX010 (ip), vehicle: saline
[2] = dose: 0.5 mg/kg/injection, schedule: Q01DX010 (ip), vehicle: saline
[3] = dose: 1.0 mg/kg/injection, schedule: Q01DX010 (ip), vehicle: saline
[4] = dose: 2.0 mg/kg/injection, schedule: Q01DX010 (ip), vehicle: saline
[5] = dose: 12.5 mg/kg/injection, schedule: Q01DX010 (ip), vehicle: saline
[6] = dose: 25.0 mg/kg/injection, schedule: Q01DX010 (ip), vehicle: saline
[7] = dose: 50.0 mg/kg/injection, schedule: Q01DX010 (ip), vehicle: saline
[8] = dose: 2.5 mg/kg/injection, schedule: Q01DX010 (ip), vehicle: saline
[9] = dose: 10.0 mg/kg/injection, schedule: Q01DX010 (ip), vehicle: saline
[10] = dose: 125.0 mg/kg/injection, schedule: Q01DX010 (ip), vehicle: saline
[11] = dose: 250.0 mg/kg/injection, schedule: Q01DX010 (ip), vehicle: saline
[12] = dose: 62.5 mg/kg/injection, schedule: Q01DX010 (ip), vehicle: saline
[13] = dose: 5.0 mg/kg/injection, schedule: Q01DX010 (ip), vehicle: saline
[14] = dose: 250.0 mg/kg/injection, schedule: Q01DX010 (sc), vehicle: steriod suspending solution
[15] = dose: 500.0 mg/kg/injection, schedule: Q01DX010 (sc), vehicle: steriod suspending solution

Measured: T/C

S=P(N1CC1)(N1CC1)N1CC1
inactive: [1] 91 % of control and 99 % of control | [2] 94 % of control and 100 % of control | [3] 95 % of control | [4] 87 % of control and 89 % of control

O=C1C=CC2(CCC23C=CC(=O)O3)O1 (configuration not stated)
inactive: dose: 6.25 mg/kg/injection, schedule: Q01DX010 (ip), vehicle: saline 100 % of control | [5] 100 % of control | [6] 106 % of control | [7] 86 % of control and 110 % of control

CC(=O)O[C@]1(C(C)=O)CC[C@H]2[C@@H]3C[C@H](C)C4=CC(=O)C=C[C@]4(C)[C@@]3(F)[C@@H](O)C[C@@]21C
inactive: dose: 12.5 mg/kg/injection, schedule: Q01DX010 (sc), vehicle: steriod suspending solution 88 % of control

COc1cc2c3c(c4ccc(OC)c(OC)c4c2cc1OC)CN1CCC[C@@H]1C3
inactive: [8] 88 % of control | [9] 92 % of control and 107 % of control | dose: 15.0 mg/kg/injection, schedule: Q01DX010 (ip), vehicle: saline 96 % of control and 121 % of control

O=CCC(O)C(O)C(O)CO (configuration not stated)
inactive: [10] 103 % of control | [11] 92 % of control and 107 % of control | dose: 500.0 mg/kg/injection, schedule: Q01DX010 (ip), vehicle: saline 107 % of control and 115 % of control

COS(C)(=O)=O
inactive: [5] 88 % of control and 100 % of control | [6] 88 % of control | [7] 92 % of control

CSc1ncnc2nc[nH]c12
inactive: [5] 92 % of control | dose: 100.0 mg/kg/injection, schedule: Q01DX010 (ip), vehicle: saline 100 % of control

NC(=O)c1ccc(N)nc1
inactive: dose: 3.0 mg/kg/injection, schedule: Q01DX010 (ip), vehicle: saline 90 % of control

CO[C@@]12[C@H](COC(N)=O)C3=C(C(=O)C(C)=C(N)C3=O)N1C[C@@H]1N[C@@H]12
inactive: [1] 92 % of control | [2] 111 % of control | [3] 103 % of control | [4] 92 % of control

O=c1[nH]c(=O)n(C2CC(O)C(CO)O2)cc1Br (configuration not stated)
inactive: [12] 121 % of control | [10] 107 % of control | [11] 96 % of control

COc1cc2c(c(OC)c1OC)-c1ccc(OC)c(=O)cc1[C@@H](NC(C)=O)CC2
inactive: dose: 0.01 mg/kg/injection, schedule: Q01DX010 (ip), vehicle: saline 107 % of control | dose: 0.02 mg/kg/injection, schedule: Q01DX010 (ip), vehicle: saline 110 % of control | dose: 0.04 mg/kg/injection, schedule: Q01DX010 (ip), vehicle: saline 114 % of control | dose: 0.08 mg/kg/injection, schedule: Q01DX010 (ip), vehicle: saline 121 % of control

Cn1c(N)nc2nc[nH]c2c1=S
inactive: [13] 100 % of control | [9] 100 % of control | dose: 20.0 mg/kg/injection, schedule: Q01DX010 (ip), vehicle: saline 100 % of control | dose: 40.0 mg/kg/injection, schedule: Q01DX010 (ip), vehicle: saline 100 % of control

Clc1ccc(C(c2ccccc2Cl)C(Cl)Cl)cc1 (configuration not stated)
inactive: dose: 62.5 mg/kg/injection, schedule: Q01DX010 (sc), vehicle: steriod suspending solution 100 % of control | dose: 125.0 mg/kg/injection, schedule: Q01DX010 (sc), vehicle: steriod suspending solution 100 % of control | [14] 96 % of control and 100 % of control | [15] 100 % of control

CCCCCC(=O)O[C@]1(C(C)=O)CC[C@H]2[C@@H]3CCC4=CC(=O)CC[C@]4(C)[C@H]3CC[C@@]21C
inactive: [14] 103 % of control | dose: 375.0 mg/kg/injection, schedule: Q01DX010 (sc), vehicle: steriod suspending solution 100 % of control | [15] 100 % of control | dose: 750.0 mg/kg/injection, schedule: Q01DX010 (sc), vehicle: steriod suspending solution 107 % of control

NC(=O)N(CCCl)N=O
inactive: [2] 100 % of control | [3] 100 % of control | [4] 86 % of control

NCCCCCCNC(=O)CCC(=O)NCCCCCCN
inactive: dose: 16.0 mg/kg/injection, schedule: Q01DX010 (ip), vehicle: saline 95 % of control | dose: 64.0 mg/kg/injection, schedule: Q01DX010 (ip), vehicle: saline 91 % of control

CCOC(=O)NP(=O)(N1CC1(C)C)N1CC1(C)C (configuration not stated)
inactive: dose: 31.3 mg/kg/injection, schedule: Q01DX010 (ip), vehicle: saline 107 % of control | [12] 92 % of control | [10] 103 % of control

C=C(C(=O)OC1CC2CCC(C1)N2C)c1ccccc1 (configuration not stated)
inactive: [13] 100 % of control

Cn1cnc([N+](=O)[O-])c1Sc1nc(N)nc2nc[nH]c12
inactive: dose: 1.25 mg/kg/injection, schedule: Q01DX010 (ip), vehicle: saline 100 % of control and 108 % of control | [8] 100 % of control and 108 % of control | [13] 88 % of control | [9] 88 % of control
